Laboratory results published in patent US12446577B2 (priority 2018, dated 2025).

Experiments:
Plasmopara viticola = Plasmopara viticola grapevine leaf disc test; type: in vivo
Method: A stock solution of choline pelargonate (29.1% PLA and 40.4% Choline hydroxide, pH 8.82) was made by mixing 14.55 mL PLA with 15.25 mL distilled water and afterwards the addition of 20.2 mL of Choline hydroxide. The choline pelargonate stock solution (42.04%) was diluted in order to create a solution with a final concentration of choline pelargonate equal to 1 mL/L and 10 mL/L. The two choline pelargonate solutions, water as negative control and copper hydroxide (2 g/L) as positive control were used for this test. For each object 4 Petri plates were prepared and each plate contains 5 grapevine leaf discs (see Table 8 below).
Leaf discs preparation: leaf discs (diameter 19 mm) were prepared from grapevine cuttings (variety Pinot Nero Entav 115) using the young leaves. 5 leaf discs were placed in each Petri Plate on autoclaved paper (4 layers), the paper was previously wetted by adding 8.5 mL of sterile water in each plate. The leaf discs were placed on the paper with the abaxial side upward.
Test products application and pathogen inoculation: leaf discs were treated with the test products at 11.30 A.M (i.e. a preventive application) and the leaves were allowed to dry. The products were sprayed with a small hand sprayer; 5 sprays were applied on each plate. The same day at 16.30 a suspension of P. viticola spores at final concentration of 2*10^5 spore/mL was applied (5 hours after test product application) on the leaf discs. The inoculated plates were incubated overnight in the dark at 25° C. The following day, the leaf discs were dried under the laminar flow and then placed back at 25° C. The disease assessment was done 7 days after the artificial inoculation.

powdery mildew on apple = assay: Trial on potted apple trees against powdery mildew; type: in vivo; conditions: day 85; weekly sprays (TMAP 10 mL/L; Chemical per Table 13/14); 1000 leaves per object
Description: During the third week of March 2017, 60 branched apple trees (rootstock M9—clone Golden B) of 2 years were transplanted from a local nursery into pots (pot: 12 Liters). The 60 potted apple plants were maintained outside the greenhouse in S. Michele all′Adige (Trento). Plants were maintained divided in 3 blocks. Each block was composed of 20 plants arranged in two rows (See scheme 1). Plants were watered through a drip irrigation system once or twice a week according to the weather conditions. The insecticidal treatments were applied uniformly on all the experimental plants. Two of the three objects were treated against powdery mildew in accordance with the foreseen spray scheme: Chemical treatments, TMAP alone, untreated. One object was maintained Untreated as reference. For the “Chemical” object, different active ingredients were used alone or in combination (Table 13).
The treatments were performed at the same time, and timings of spray were done weekly and according to the weather conditions. […]
Powdery mildew: 5 shoots per each plant were randomly selected and labeled for the assessments. The assessment on powdery mildew was done on day 85, ten leaves of each shoot were singularly evaluated for the presence of symptoms, 5 marked shoots per plant were assessed. […]
Data of powdery mildew incidence were analyzed using the Statistica 13.1 software.

CCCCCCCCC(=O)[O-].C[N+](C)(C)CCO [Choline pelargonate, choline pelargonate]
disease severity (level of sporulation) (Plasmopara viticola; 1 mL/L, preventive spray, 7 days after the artificial inoculation): 5.3% | disease severity (Plasmopara viticola; 10 mL/L, preventive spray, 7 days after the artificial inoculation): 0% | efficacy against P. viticola (Plasmopara viticola; test repeated a second and a third time (data not shown)): comparable with the reference copper | disease incidence (percentage of infected leaves) (powdery mildew on apple): 25.5%
